Data: US5859007A, “CCK or gastrin modulating benzo [b][1,4] diazepines derivatives” (Glaxo Wellcome Inc., priority 1994, dated 1999)

Test system: isolated guinea pig gallbladder
Experiment: Functional activity in isolated guinea pig gallbladder preparation
Type: cell-based
Conditions: expressed as % CCK-induced maximal response; for activation at 1 µM / activation at 30 µM: Cavia porcellus; for activation at 1 µM: read-out: %Contraction (1 × 10^-6 M); for activation at 30 µM: 3 × 10^-5 M test compound, read-out: % Contraction (3 × 10^-5 M)
Protocol: 3. GUINEA PIG GALL BLADDER ASSAY
Gallbladders are removed from guinea pigs sacrificed by cervical dislocation. The isolated gallbladders are cleaned of adherent connective tissue and cut into two rings from each animal (2-4 mm in length). The rings are subsequently suspended in organ chambers containing a physiological salt solution (118.4 mM NaCl, 4.7 mM KCl, 1.2 mM MgSO4, 2.5 mM CaCl2, 1.2 mM KH2 […], 25 mM NaHCO3, 11.1 mM dextrose). The bathing solution is maintained at 37° C. and aerated with 95% O2 /5% CO2. Tissues are connected via gold chains and stainless steel mounting wires to isometric force displacement transducers (Grass, Model FT03 D). Responses are then recorded on a polygraph (Grass, Model 7E).
Rings are gradually stretched (over a 120 min. period) to a basal resting tension of 1 gm which is maintained throughout the experiment. During the basal tension adjustment period, the rings are exposed to acetylcholine (10^-6 M) four times to verify tissue contractility. The tissues are then exposed to a submaximal dose of sulfated CCK-8 (Sigma, 3×10^-9 M). After obtaining a stable response, the tissues are washed out 3 times rapidly and every 5 to 10 minutes for 1 hour to reestablish a stable baseline.
Compounds are dissolved in dimethylsulfoxide ([…]) followed by a concentration-response curve to sulfated CCK-8 (10^-10 to 10^-6 M) in the presence of the highest dose of the test compound. As a final test, ACH (10 mM) is added to induce maximal contraction. A minimum of three determinations of activity are made for each test compound.

## COc1ccc(N(C(=O)CN2C(=O)C(Cc3c[nH]c4ccccc34)C(=O)N(c3ccccc3)c3ccccc32)C(C)C)cc1 (centres unmarked) [Example 22, 2-[3-(1H-indol-3-ylmethyl)-2,4-dioxo-5-phenyl-2,3,4,5-tetrahydro-benzo[b][1,4]diazepin-1-yl]-N-isopropyl-N-(4-methoxy-phenyl) acetamide]
1 × 10^-6 M test compound
  activation at 1 µM: 61%
  activation at 30 µM: 71%

## COc1ccc(N(C(=O)CN2C(=O)C(C)(Cc3c[nH]c4ccccc34)C(=O)N(c3ccccc3)c3ccccc32)C(C)C)cc1 (centres unmarked) [Example 23, 2-[3-(1H-indol-3-ylmethyl)-3-methyl-2,4-dioxo-5-phenyl-2,3,4,5-tetrahydro-benzo[b][1,4]diazepin-1-yl]-N-isopropyl-N-(4-methoxy-phenyl) acetamide]
  activation at 30 µM: 50%

## COc1ccc(N(C(=O)CN2C(=O)C(C)(Cc3cn(C)c4ccccc34)C(=O)N(c3ccccc3)c3ccccc32)C(C)C)cc1 (centres unmarked) [Example 24, 2-[3-(N-methyl-indol-3-ylmethyl)-3-methyl-2,4-dioxo-5-phenyl-2,3,4,5-tetrahydro-benzo[b][1,4]diazepin-1-yl]-N-isopropyl-N-(4-methoxy-phenyl) acetamide]
  activation at 30 µM: 34%

## COc1ccc(N(C(=O)CN2C(=O)C(C)(CC(=O)Nc3cccc(F)c3)C(=O)N(c3ccccc3)c3ccccc32)C(C)C)cc1 (centres unmarked) [Example 25, N-Isopropyl-N-(4-methoxy-phenyl)-2-[3-(3-fluoro-phenylcarbamoylmethyl)-3-methyl-2,4-dioxo-5-phenyl-2,3,4,5-tetrahydro-benzo[b][1,4]diazepin-1-yl]acetamide]
1 × 10^-6 M test compound
  activation at 1 µM: 88%

## COCC1(CC(=O)Nc2ccccc2)C(=O)N(CC(=O)N(c2ccc(OC)cc2)C(C)C)c2ccccc2N(c2ccccc2)C1=O (centres unmarked) [Example 26, N-Isopropyl-2-(3-methoxymethyl-2,4-dioxo-5-phenyl-3-phenylcarbamoylmethyl-2,3,4,5-tetrahydro-benzo[b][1,4]diazepin-1-yl)-N-(4-methoxy-phenyl)-acetamide]
1 × 10^-6 M test compound
  activation at 1 µM: 91%

## COc1ccc(N(C(=O)CN2C(=O)C(Cc3nn(Cc4ccccc4)c4ccccc34)C(=O)N(c3ccccc3)c3ccccc32)C(C)C)cc1 (centres unmarked) [Example 27, 2-[3-(1-Benzyl-1H-indazol-3-ylmethyl)-2,4-dioxo-5-phenyl-2,3,4,5-tetrahydro-benzo[b][1,4]diazepin-1-yl]-N-isopropyl-N-(4-methoxy-phenyl) acetamide]
  activation at 30 µM: 40%

## COc1ccc(N(C(=O)CN2C(=O)C(CN(C)C(=O)c3ccccc3)C(=O)N(c3ccccc3)c3ccccc32)C(C)C)cc1 (centres unmarked) [Example 28, N-{1-[Isopropyl-(4-methoxy-phenyl)-carbamoylmethyl]-2,4-dioxo-5 phenyl-2,3,4,5-tetrahydro-1H-benzo[b][1,4]diazepin-3-ylmethyl}-N-methyl benzamide]
1 × 10^-6 M test compound
  activation at 1 µM: 3%

## COc1ccc(N(C(=O)CN2C(=O)C(CC(=O)O)(CC(=O)Nc3ccccc3)C(=O)N(c3ccccc3)c3ccccc32)C(C)C)cc1 (centres unmarked) [Example 29, {1-[Isopropyl-(4-methoxy-phenyl)-carbamoylmethyl]-2,4-dioxo-5-phenyl-3-phenylcarbamoylmethyl-2,3,4,5-tetrahydro-1H-benzo[b][1,4]diazepin-3-yl}acetic acid]
1 × 10^-6 M test compound
  activation at 1 µM: 65%
  activation at 30 µM: 85%

## COc1ccc(N(C(=O)CN2C(=O)C(C)(Cc3n[nH]c4ccccc34)C(=O)N(c3ccccc3)c3ccccc32)C(C)C)cc1 (centres unmarked) [Example 30, 2-[3-(1H-Indazol-3-ylmethyl)-3-methyl-2,4-dioxo-5-phenyl-2,3,4,5-tetrahydro-benzo[b][1,4]diazepin-1-yl]-N-isopropyl-N-(4-methoxy-phenyl) acetamide]
1 × 10^-6 M test compound
  activation at 1 µM: 75%
  activation at 30 µM: 70%

## COc1ccc(N(C(=O)CN2C(=O)C(Cc3coc4ccccc34)C(=O)N(c3ccccc3)c3ccccc32)C(C)C)cc1 (centres unmarked) [Example 32]
1 × 10^-6 M test compound
  activation at 1 µM: 38%

## COc1ccc(N(C(=O)CN2C(=O)C(C)(Cc3coc4ccccc34)C(=O)N(c3ccccc3)c3ccccc32)C(C)C)cc1 (centres unmarked) [Example 33]
1 × 10^-6 M test compound
  activation at 1 µM: 53%

## COc1ccc(N(C(=O)CN2C(=O)C(Cc3cccc4ccccc34)C(=O)N(c3ccccc3)c3ccccc32)C(C)C)cc1 (centres unmarked) [Example 34, N-Isopropyl-N-(4-methoxy-phenyl)-2-(3-naphthalen-1-ylmethyl-2,4-dioxo-5-phenyl-2,3,4,5-tetrahydro-benzo[b][1,4]diazepin-1-yl) acetamide]
1 × 10^-6 M test compound
  activation at 1 µM: 47%

## COc1ccc(N(C(=O)CN2C(=O)C(C)(Cc3cccc4ccccc34)C(=O)N(c3ccccc3)c3ccccc32)C(C)C)cc1 (centres unmarked) [Example 35, N-Isopropyl-N-(4-methoxy-phenyl)-2-(3-methyl-3-naphthalen-1-ylmethyl-2,4-dioxo-5-phenyl-2,3,4,5-tetrahydro-benzo[b][1,4]diazepin-1-yl) acetamide]
1 × 10^-6 M test compound
  activation at 1 µM: 44%

## COc1ccc(N(C(=O)CN2C(=O)C(Cc3ccc4ccccc4c3)C(=O)N(c3ccccc3)c3ccccc32)C(C)C)cc1 (centres unmarked) [Example 36, N-Isopropyl-N-(4-methoxy-phenyl)-2-(3-naphthalen-2-ylmethyl-2,4-dioxo-5-phenyl-2,3,4,5-tetrahydro-benzo[b][1,4]diazepin-1-yl) acetamide]
1 × 10^-6 M test compound
  activation at 1 µM: 19%

## COc1ccc(N(C(=O)CN2C(=O)C(Cc3csc4ccccc34)C(=O)N(c3ccccc3)c3ccccc32)C(C)C)cc1 (centres unmarked) [Example 37, 2-(3-Benzo[b]thiophen-3-ylmethyl-2,4-dioxo-5-phenyl-2,3,4,5-tetrahydro-benzo[b][1,4]diazepin-1-yl)-N-isopropyl-N-(4-methoxy-phenyl) acetamide]
1 × 10^-6 M test compound
  activation at 1 µM: 46%

## COc1ccc(N(C(=O)CN2C(=O)C(C)(Cc3ccc4ccccc4c3)C(=O)N(c3ccccc3)c3ccccc32)C(C)C)cc1 (centres unmarked) [Example 38, N-Isopropyl-N-(4-methoxy-phenyl)-2-(3-methyl-3-naphthalen-2-ylmethyl-2,4-dioxo-5-phenyl-2,3,4,5-tetrahydro-benzo[b][1,4]diazepin-1-yl) acetamide]
1 × 10^-6 M test compound
  activation at 1 µM: 30%

## COc1ccc(N(C(=O)CN2C(=O)C(CC(=O)Nc3ccccc3)C(=O)N(c3ccccc3)c3ccccc32)C(C)C)cc1 (centres unmarked) [Example 39, 2-(2,4-dioxo-5-phenyl-3-phenylcarbamoylmethyl-2,3,4,5-tetrahydro-benzo[b][1,4]diazepin-1-yl)-N-isopropyl-N-(4-methoxy-phenyl)-acetamide]
1 × 10^-6 M test compound
  %Contraction (1 × 10^-6 M): 57%

## COc1ccc(N(C(=O)CN2C(=O)C(C)(Cc3csc4ccccc34)C(=O)N(c3ccccc3)c3ccccc32)C(C)C)cc1 (centres unmarked) [Example 40, 2-(3-Benzo[b]thiophen-3-ylmethyl-3-methyl-2,4-dioxo-5-phenyl-2,3,4,5-tetrahydro-benzo[b][1,4]diazepin-1-yl)-N-isopropyl-N-(4-methoxy-phenyl) acetamide]
1 × 10^-6 M test compound
  activation at 1 µM: 10%

## COc1ccc(N(C(=O)CN2C(=O)C(C)(CC(=O)Nc3ccccc3)C(=O)N(c3ccc(Cl)cc3)c3ccccc32)C(C)C)cc1 (centres unmarked) [Example 41]
1 × 10^-6 M test compound
  activation at 1 µM: 40%

## COc1ccc(N(C(=O)CN2C(=O)C(Cc3nn(Cc4ccccc4)c4ccccc34)(OC)C(=O)N(c3ccccc3)c3ccccc32)C(C)C)cc1 (centres unmarked) [Example 42, 2-[3-(1-Benzyl-1H-Indazol-3-ylmethyl)-3-methoxy-2,4-dioxo-5-phenyl-2,3,4,5-tetrahydro-benzo[b][1,4]diazepin-1-yl]-N-isopropyl-N-(4-methoxy-phenyl) acetamide]
1 × 10^-6 M test compound
  activation at 1 µM: 16%
